Laboratory results from patent US12187727B2, “Methods for antagonizing a melanocortin 4 receptor” (Pfizer Inc., priority 2020, dated 2025).
Where two headings read alike, the source gives them in different places.

Columns and labels:
[1] = target: hMC4R (Homo sapiens (Human), UniProt P32245); assay: In vitro binding affinity assay using hMC4R (radioligand competition binding, [125I]-(Nle4, D-Phe7)-α-MSH); settings: geometric mean
Procedure: Example AA. In Vitro Binding Affinity Assay Using hMC4R
The binding affinity of test compounds at the […] (hMC4R) was assessed using a radioligand competition binding assay. […] Cell membranes were bulked and frozen until the assay was performed.
Compounds were solubilized in 100% dimethyl sulfoxide (DMSO) to a concentration of 30 mM. A 10-point intermediate dilution series using half log dilutions was created in 100% DMSO with a top concentration of 0.03 mM. […] The final compound range in the assay was 300 nM to 0.01 nM with a final DMSO concentration of 1%. […] The exact concentration of radioligand used for each experiment was determined by liquid scintillation counting and adjusted if necessary.
Frozen hMC4R cell membranes were thawed and Dounce homogenized. Homogenates were resuspended in assay buffer to a concentration of 2 μg per well. […] The plates were incubated for 2 hours at room temperature.
The raw data (expressed as counts per minute) were analyzed using ActivityBase (IDBS Data Management Software). […] Equilibrium dissociation constant for inhibitor of ligand and receptor interaction (Ki) values were then calculated from the IC50 values using the Cheng-Prusoff equation: Ki=IC50/(1+([L]/Kd)), where [L] is the concentration of the radioligand used in the experiment and Kd is the affinity of the radioligand (determined in separate saturation experiments).

[2] = target: human Melanocortin-4 receptor (MC4R) (Homo sapiens (Human), UniProt P32245); assay: Functional in vitro MC4R antagonist potency assay (cAMP HTRF in CHO cells); type: cell-based
Chain of human Melanocortin-4 receptor (MC4R) (P32245 whole entry): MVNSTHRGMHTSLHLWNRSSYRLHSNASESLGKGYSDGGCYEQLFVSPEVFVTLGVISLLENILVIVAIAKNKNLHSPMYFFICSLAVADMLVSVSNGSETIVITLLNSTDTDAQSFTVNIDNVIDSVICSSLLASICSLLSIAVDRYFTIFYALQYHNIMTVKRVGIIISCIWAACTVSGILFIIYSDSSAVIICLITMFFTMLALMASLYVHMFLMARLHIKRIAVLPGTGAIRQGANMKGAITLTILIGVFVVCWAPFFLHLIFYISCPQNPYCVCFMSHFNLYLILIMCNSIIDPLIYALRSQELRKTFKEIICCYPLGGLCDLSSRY
Method in brief: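 CHO cells stably expressing human MC4R were preincubated 30 min at 37 °C with compound ([…], 0.1% DMSO), then stimulated 30 min with EC80 αMSH (200 nM). Intracellular cAMP quantified by HTRF competitive immunoassay and normalized to agonist-stimulated and vehicle-only wells.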

[3] = read-out: Ki (nM) geometric mean
[4] = read-out: Kb (nM) Antagonist geometric mean
[5] = human MC4R in CHO cells, cAMP HTRF, 200 nM aMSH challenge, Kb from IC50 by Leff-Dougall equation, geometric mean, read-out: Kb (nM) Antagonist geometric

Chain of hMC4R (P32245 whole entry): as above

SMILES	Ki [1, 3] [nM]	Kb [2, 4] [nM]	Ki ([1]; read-out: Ki (nM) geometric) [nM]	Kb [2, 5] [nM]
Cc1nc2c(cc1-c1ncccn1)CC[C@@]1(CCN(C(=O)[C@H](C)c3cc(C(F)(F)F)ncc3F)C1)N2 (single isomer, unassigned) [Example 80]	8	28	–	–
COc1cc([C@@H](C)C(=O)N2CC[C@@]3(CCc4ccc(C)nc4N3)C2)nc(C)n1 (single isomer, unassigned) [Example 25, 2-(6-methoxy-2-methylpyrimidin-4-yl)-1-(7-methyl-3,4-dihydro-1H-spiro[1,8-naphthyridine-2,3′-pyrrolidin]-1′-yl)propan-1-one]	220	> 97	–	–
COc1cc([C@@H](C)C(=O)N2CC[C@@]3(CCc4cc(-c5nc(C(F)(F)F)n(C)n5)c(C)nc4N3)C2)c(Cl)cn1 (single isomer, unassigned) [Example 95]	86	7.5	–	–
Cc1nc2c(cc1-c1ncccn1)CC[C@@]1(CCN(C(=O)[C@H](C)c3ccc(OC(F)(F)F)cc3)C1)N2 (single isomer, unassigned) [Example 49]	64	> 95	–	–
COc1cc([C@@H](C)C(=O)N2CC[C@@]3(CCc4cc(-c5nc(C(F)F)n(C)n5)c(C)nc4N3)C2)nc(C)n1 (single isomer, unassigned) [Example 124]	–	–	6.7	0.81
COc1cc(CC(=O)N2CC[C@@]3(CCc4cc(-c5ncccn5)c(C)nc4N3)C2)c(F)cn1 [Example 106, 2-(5-fluoro-2-methoxypyridin-4-yl)-1-[(2S)-7-methyl-6-(pyrimidin-2-yl)-3,4-dihydro-1H-spiro[1,8-naphthyridine-2,3′-pyrrolidin]-1′-yl]ethan-1-one]	–	–	3.5	6.3
COc1cc([C@@H](C)C(=O)N2CC[C@@]3(CCc4cc(-c5cnn(C)c5)c(C)nc4N3)C2)c(Cl)cn1 (single isomer, unassigned) [Example 105]	–	–	54	16
COc1cc([C@@H](C)C(=O)N2CC[C@@]3(CCc4cc(-c5nc(C(F)(F)F)n(C)n5)c(C)nc4N3)C2)c(F)cn1 (single isomer, unassigned) [Example 93]	16	4.1	–	–
Cc1nc2c(cc1-c1nnn(C)n1)CC[C@@]1(CCN(C(=O)[C@H](C)c3ccc(OC(F)F)nc3)C1)N2 (single isomer, unassigned) [Example 108]	–	–	1.2	7.1
COc1cc([C@@H](C)C(=O)N2CCC3(CCc4cc(-c5nnn(C)n5)c(C)nc4N3)C2)c(Cl)cn1 (single isomer, unassigned) [Example 1]	0.21	0.049	–	–
COc1cc([C@@H](C)C(=O)N2CC[C@@]3(CCc4ccc(C)nc4N3)C2)nc(C)n1 (single isomer, unassigned) [Example 24, 2-(6-methoxy-2-methylpyrimidin-4-yl)-1-(7-methyl-3,4-dihydro-1H-spiro[1,8-naphthyridine-2,3′-pyrrolidin]-1′-yl)propan-1-one]	77	> 97	–	–
COc1cc(OC(F)F)cc([C@@H](C)C(=O)N2CC[C@@]3(CCc4cc(-c5ncccn5)c(C)nc4N3)C2)c1 (single isomer, unassigned) [Example 62]	0.15	0.08	–	–
Cc1nc2c(cc1-c1ncccn1)CC[C@@]1(CCN(C(=O)C(C)c3ccc(C(F)(F)F)cc3)C1)N2 (single isomer, unassigned) [Example 7]	0.62	8.1	–	–
Cc1nc2c(cc1-c1ncccn1)CC[C@@]1(CCN(C(=O)[C@H](C)c3cc(OC(F)F)ncc3Cl)C1)N2 (single isomer, unassigned) [Example 60]	0.54	0.18	–	–
Cc1nc(OC(F)F)cc([C@@H](C)C(=O)N2CC[C@@]3(CCc4cc(-c5ncccn5)c(C)nc4N3)C2)n1 (single isomer, unassigned) [Example 45]	0.95	0.76	–	–
COc1cc([C@@H](C)C(=O)N2CCC3(CCc4cc(-c5cnn(C)c5)c(C)nc4N3)C2)c(F)cn1 (single isomer, unassigned) [Example 16]	0.36	0.88	–	–
COc1cc(OC)cc([C@@H](C)C(=O)N2CC[C@@]3(CCc4ccc(C)nc4N3)C2)c1 (single isomer, unassigned) [Example 96]	4.1	11	–	–
COc1cc([C@@H](C)C(=O)N2CC[C@@]3(CCc4cc(-c5cncc(OC)n5)c(C)nc4N3)C2)c(F)cn1 [Example 197, (2R)-2-(5-fluoro-2-methoxypyridin-4-yl)-1-[(2S)-6-(6-methoxypyrazin-2-yl)-7-methyl-3,4-dihydro-1H-spiro[1,8-naphthyridine-2,3′-pyrrolidin]-1′-yl]propan-1-one]	–	–	18	33
Cc1nc2c(cc1-c1ncccn1)CC[C@@]1(CCN(C(=O)[C@H](C)c3ccc(OC(F)(F)F)cc3)C1)N2 (single isomer, unassigned) [Example 48]	0.36	1.8	–	–
Cc1nc2c(cc1-c1ncccn1)CC[C@@]1(CCN(C(=O)[C@H](C)c3cc(F)c(F)c(F)c3)C1)N2 (single isomer, unassigned) [Example 55]	58	> 95	–	–
COc1cc([C@@H](C)C(=O)N2CCC3(CCc4cc(-c5nc(OC)n(C)n5)c(C)nc4N3)C2)c(Cl)cn1 (single isomer, unassigned) [Example 115]	–	–	31	3.5

Next, values leading:

Ki [1, 3] [nM]	Kb [2, 4] [nM]	Ki ([1]; read-out: Ki (nM) geometric) [nM]	Kb [2, 5] [nM]	SMILES
–	–	1.8	7.9	COc1cc([C@](C)(F)C(=O)N2CC[C@@]3(CCc4cc(-c5ncccn5)c(C)nc4N3)C2)c(F)cn1 (single isomer, unassigned) [Example 149]
2.2	9	–	–	Cc1nc2c(cc1-c1ncccn1)CC[C@@]1(CCN(C(=O)[C@H](C)c3cc(OC(F)(F)F)ncc3F)C1)N2 (single isomer, unassigned) [Example 76]
0.68	2.6	–	–	Cc1nc2c(cc1-c1ncccn1)CC[C@@]1(CCN(C(=O)[C@H](C)c3cc(F)c(F)cc3F)C1)N2 (single isomer, unassigned) [Example 52]
–	–	17	8	COc1cc([C@@H](C)C(=O)N2CC[C@@]3(CCc4cc(-c5nc(OC)n(C)n5)c(C)nc4N3)C2)c(F)cn1 (single isomer, unassigned) [Example 113]
–	–	5.9	9	COc1cc([C@@H](C)C(=O)N2CC[C@@]3(CCc4cc(-c5nc6ccccn6n5)c(C)nc4N3)C2)nc(C(F)F)n1 (single isomer, unassigned) [Example 130]
–	–	59	19	COc1cc([C@@H](C)C(=O)N2CC[C@@]3(CCc4cc(-c5ncccn5)c(C)nc4N3)C2)c(C)cn1 (single isomer, unassigned) [Example 137]
–	–	230	> 94	Cc1nc2c(cc1-c1ncccn1)CC[C@@]1(CCN(C(=O)[C@H](C)c3ccc(F)cc3F)C1)N2 (single isomer, unassigned) [Example 191]
2.5	12	–	–	COc1nccc([C@@H](C)C(=O)N2CC[C@@]3(CCc4cc(-c5ncccn5)c(C)nc4N3)C2)c1F (single isomer, unassigned) [Example 57]
120	> 110	–	–	Cc1nc2c(cc1-c1ncccn1)CC[C@@]1(CCN(C(=O)[C@H](C)c3ccc(F)c(F)c3)C1)N2 (single isomer, unassigned) [Example 51]
4.9	23	–	–	Cc1nc2c(cc1-c1ncccn1)CC[C@@]1(CCN(C(=O)[C@H](C)c3cc(C(F)(F)F)ncc3Cl)C1)N2 (single isomer, unassigned) [Example 39]
0.51	0.8	–	–	Cc1nc2c(cc1-c1ncccn1)CC[C@@]1(CCN(C(=O)[C@H](C)c3cc(F)c(F)c(F)c3)C1)N2 (single isomer, unassigned) [Example 56]
0.44	8.5	–	–	Cc1nc2c(cc1-c1ncccn1)CC[C@@]1(CCN(C(=O)C(C)c3ccc(OC(F)F)nc3)C1)N2 (single isomer, unassigned) [Example 6]
–	–	0.25	0.47	COc1cc([C@@H](C)C(=O)N2CC[C@@]3(CCc4cc(-c5nc6ccccn6n5)c(C)nc4N3)C2)c(F)cn1 [Example 111, (2R)-2-(5-fluoro-2-methoxypyridin-4-yl)-1-[(2S)-7-methyl-6-([1,2,4]triazolo[1,5-a]pyridin-2-yl)-3,4-dihydro-1H-spiro[1,8-naphthyridine-2,3′-pyrrolidin]-1′-yl]propan-1-one]
–	–	3.8	10	COc1ncc(F)c([C@@H](C)C(=O)N2CC[C@@]3(CCc4cc(-c5nnn(C)n5)c(C)nc4N3)C2)n1 (single isomer, unassigned) [Example 135]
69	> 64	–	–	COc1cc([C@@H](C)C(=O)N2CCC3(CCc4cc(-c5cnn(C)c5)c(C)nc4N3)C2)c(F)cn1 (single isomer, unassigned) [Example 17]
